The values that follow are results of earlier work, collected in patent US20070077258A1 (priority 2005, published 2007).

The test system of series [1] is influenza virus in Madin-Darby Canine Kidney (MDCK) Cells.
The conditions of series [2]: 3 grams of glutathione by oral ingestion.
The subject of series [3] is influenza virus in Normal Human Small Airway Epithelial Cells (SAEC).

Each structure is given as a SMILES string. Read-outs that look alike come from different tables or passages of the source.

In the case of `N[C@@H](CCC(=O)N[C@@H](CS)C(=O)NCC(=O)O)C(=O)O` [glutathione, gamma-glutamyl-cysteinyl-glycine], the “replication of flu virus” value in series [1] and in series [3] was “prevention of replication of flu virus was demonstrated” each time. The tolerability entry reads like this: (1500 mg /m2) “well tolerated”; (2500 mg daily for 5 days) “well tolerated”. In addition, under “in vivo”, the toxicity reported entry is recorded as “No toxicity”. The “effect on plasma glutathione levels” value in series [2] was “does not elevate plasma glutathione levels”.
